# Source: paper doi:10.1101/2024.02.28.577416v1 (biorxiv, 2024)
# Numbering of substitutions follows the chain as printed.
# Columns and labels:
# SCO4122 [1] = molecular target: T1, SCO4122 (Streptomyces coelicolor, UniProt Q9KYE8); test: SPR; type: binding
# T1 sequence (Q9KYE8 1-182): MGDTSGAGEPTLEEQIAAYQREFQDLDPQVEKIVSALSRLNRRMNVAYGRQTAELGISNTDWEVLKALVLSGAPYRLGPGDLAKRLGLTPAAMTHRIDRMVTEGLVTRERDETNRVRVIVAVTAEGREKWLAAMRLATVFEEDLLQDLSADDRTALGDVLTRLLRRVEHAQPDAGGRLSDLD
# SCO4122 [2] = molecular target: T2, SCO4122 (Streptomyces coelicolor, UniProt Q9KYE8, M93L); test: SPR; type: binding
# T2 sequence (Q9KYE8 1-182 M93L): T1 sequence (Q9KYE8 1-182) with M93L
SMILES,Kd (SCO4122 [1]) [µM],Kd (SCO4122 [2]) [µM]
CC[n+]1c(-c2ccccc2)c2cc(N)ccc2c2ccc(N)cc21 [EtBr],1.39,
CN(C)[C@@H]1C(=O)C(C(N)=O)=C(O)[C@@]2(O)C(=O)C3=C(O)c4c(O)cccc4[C@@](C)(O)[C@H]3C[C@@H]12 [tetracycline],2.68,2.43
[H]/N=C(/N)N[C@H]1[C@H](O)[C@@H](O)[C@H](O[C@@H]2O[C@@H](C)[C@](O)(C=O)[C@H]2O[C@@H]2O[C@@H](CO)[C@H](O)[C@@H](O)[C@@H]2NC)[C@@H](N/C(N)=N\[H])[C@@H]1O [streptomycin],0.73,53.9

# The next lines start with results.
Kd (SCO4122 [1]) [µM],SMILES,Kd (SCO4122 [2]) [µM]
2000,O=C(N[C@H](CO)[C@H](O)c1ccc([N+](=O)[O-])cc1)C(Cl)Cl [chloramphenicol],
31,O=C(O)c1cn(C2CC2)c2cc(N3CCNCC3)c(F)cc2c1=O [ciprofloxacin],
